Read-outs that look alike come from different tables or passages of the source.
Tests used:
Bacillus subtilis = experiment: Bio-enhancement of anti-infective agents, broth assay with viable cell count; assay type: cell-based; conditions: for Fold enhancement in antibiotic activity: cow urine distillate 1 µl/ml
Procedure: (§1) • a) The minimum inhibitory concentration (MIC) of antibiotic is determined against Escherichia coli (equivalent of ATCC 10536), Bacillus subtilis (equivalent of ATCC 6015) and Mycobacterium smegmatis (equivalent of ATCC 10231) in broth and disc diffusion assay. • b) The antibiotics agents at concentrations 1/4, 1/3, 1/2 and equal to MIC are added alone and in combination with the test compound at varying concentrations on disc and in broth to evaluate the comparative inhibition. • c) These combination showing significant advantage or higher activity than antibiotic alone in terms of enhanced inhibition of bacterial growth (large inhibition zone in disc diffusion and affectivity of lower concentration in broth assay) are picked up for future testing. • d) In broth assay the activity is quantified by counting number of viable cells in a given treatment and converted in fold enhancement by combination compared to antibiotic / drug alone in the killing percentage of cells. • e) The pre-treatment assay followed to determine whether the compound is required along with antibiotic to enhance its activity or even its withdrawal after treatment or prior to antibiotic treatment would benefit. For this, the cells are treated with compound for 4 to 8 hours and then washed free of it by centrifugation and washing in sterile water. This was followed by treatment with antibiotic as in steps b to d.
(§2) In the next step of elucidation of the enhancer action, the applicants experimented with the killing activities of different antibiotics against the bacteria singly and in combination with the test component (cow urine distillate) following the method described above. These experiments are being described in the following examples. […] In all the experiments the cow urine distillate concentration was kept at 1 µl/ml, unless it is specifically mentioned.

Mycobacterium smegmatis = experiment: as above; assay type: cell-based; conditions: for Fold enhancement in antibiotic activity: cow urine distillate 1 µl/ml
Procedure: as §1, §2

Escherichia coli = experiment: as above; assay type: cell-based; conditions: for Fold enhancement in antibiotic activity: cow urine distillate 1 µl/ml
Procedure: as §1, §2

[1] = Bioenhancement of antifungal agent, minimum inhibitory concentration; assay type: cell-based; conditions: active fraction Gm-IV kept at 10 µg/ml in the combination
[2] = system: oxyR mutant of bacterium Escherichia coli; assay type: cell-based; conditions: for Fold enhancement in isoniazid/H2O2 activity: cow urine distillate 0.001 µl/ml
Procedure: For this, the cells are treated with compound for 4 to 8 hours and then washed free of it by centrifugation and washing in sterile water. This was followed by treatment with antibiotic as in steps b to d.

[3] = for OD measured as Absorbance (specific to the compound maxima) across the membrane in receiving tube after 1 hr / OD measured as Absorbance (specific to the compound maxima) across the membrane in receiving tube after 2 hr / OD measured as Absorbance (specific to the compound maxima) across the membrane in receiving tube after 3 hr / OD measured as Absorbance (specific to the compound maxima) across the membrane in receiving tube after 4hr / OD measured as Absorbance (specific to the compound maxima) across the membrane in receiving tube after 5 hr / OD measured as Absorbance (specific to the compound maxima) across the membrane in receiving tube after 6 hr: Rifampicin 1mg/ml, fraction Gm-IV 1.0µg/ml
MCF-7 = experiment: Bio-enhancement of anti-cancer agents, viable cell count; assay type: cell-based; conditions: distillate at 1 µl/ml
Procedure: • a) MCF-7 (Breast cancer commercial cell line obtained from National Center for Cell Sciences (NCCS), Pune) is inoculated at a density of about 0.1 X 10^6 cells in MEM medium in the wells of 24 well plate. • b) This is replaced with fresh medium after 18 hours in each well. • c) The test component (s) is added at desired concentrations in different wells just after the medium replacement. • d) Observations are recorded on the cell count after 36 hours for which the allowing steps are required. • i. The medium is removed from the wells. • ii. The wells are rinsed with 1ml PBS (Phosphate buffer saline). • iii. To each well 500 µl of freshly prepared trypsin (0.1% in PBS) solution is added. • iv. Trypsin solution is removed after 30 seconds and the plate is gently tapped till the cells are released from the plate surface. • v. Fresh 1 ml of MEM growth medium is added and agitated with a pipette to obtain a cell suspension. • vi. 10 µl of cell suspension is taken on the haemocytometer and a cover glass is placed over the counting chamber. • vii. The number of viable cells is counted in 5 big squares and the readings are taken from 5 microscopic fields to determine the average. • viii. The cell count (titer per ml) in the original sample is then calculated as average count X 10^3.

[4] = antibiotic 0.1 µg/ml + cow urine distillate 1 µl/ml
[5] = antibiotic 0.5 µg/ml + cow urine distillate 1 µl/ml
[6] = antibiotic 0.05 µg/ml + cow urine distillate 1 µl/ml

CC1(C)S[C@@H]2[C@H](NC(=O)[C@H](N)c3ccccc3)C(=O)N2[C@H]1C(=O)O [Ampicillin]
Survival fraction of viable cells upon treatment with antibiotic alone (Bacillus subtilis; antibiotic 0.1 µg/ml): 1.00
Survival fraction of viable cells upon treatment with antibiotic + cow urine distillate combination (Bacillus subtilis; [4]): 0.3
Fold enhancement in antibiotic activity (Bacillus subtilis; antibiotic 0.1 µg/ml): 3.3
Survival fraction of viable cells upon treatment with antibiotic alone (Bacillus subtilis; antibiotic 0.5 µg/ml): 0.18
Survival fraction of viable cells upon treatment with antibiotic + cow urine distillate combination (Bacillus subtilis; [5]): 0.06
Fold enhancement in antibiotic activity (Bacillus subtilis; antibiotic 0.5 µg/ml): 3.0
Survival fraction of viable cells upon treatment with antibiotic alone (Mycobacterium smegmatis; antibiotic 0.5 µg/ml): 0.07
Survival fraction of viable cells upon treatment with antibiotic + cow urine distillate combination (Mycobacterium smegmatis; [5]): 0.006
Fold enhancement in antibiotic activity (Mycobacterium smegmatis; antibiotic 0.5 µg/ml): 11.6
Survival fraction of viable cells upon treatment with antibiotic alone (Escherichia coli; antibiotic 4 µg/ml): 1.11
Survival fraction of viable cells upon treatment with amlibiotic + cow urine distillate combination (Escherichia coli; antibiotic 4 µg/ml + cow urine distillate 1 µl/ml): 0.60
Fold enhancement in antibiotic activity (Escherichia coli; antibiotic 4 µg/ml): 1.85
Survival fraction of viable cells upon treatment with antibiotic alone (Escherichia coli; antibiotic 6 µg/ml): 0.09
Survival fraction of viable cells upon treatment with amlibiotic + cow urine distillate combination (Escherichia coli; antibiotic 6 µg/ml + cow urine distillate 1 µl/ml): 0.02
Fold enhancement in antibiotic activity (Escherichia coli; antibiotic 6 µg/ml): 4.50
Survival fraction of viable cells upon treatment with antibiotic alone (Escherichia coli; antibiotic 8 µg/ml): 0.05
Survival fraction of viable cells upon treatment with amlibiotic + cow urine distillate combination (Escherichia coli; antibiotic 8 µg/ml + cow urine distillate 1 µl/ml): 0.01
Fold enhancement in antibiotic activity (Escherichia coli; antibiotic 8 µg/ml): 5.00

Clc1ccccc1C(c1ccccc1)(c1ccccc1)n1ccnc1 [Clotrimazol]
Fold enhancement [1]: 0.0
Minimum inhibitory Concentration (MIC) [1]: 4.40 µg/mL

OO [Hydrogen peroxide (H2O2), Hydrogen peroxide]
Viable cell count ([2]; 0.003 %v/v): 7.14 x10^7
Viable cell count ([2]; 0.003 %v/v + cow urine distillate 0.001 µl/ml): 1.2 x10^7
Fold enhancement in isoniazid/H2O2 activity ([2]; 0.003 %v/v): 5.9

NNC(=O)c1ccncc1 [Isoniazid]
Viable cell count ([2]; 250µg/ml): 7.5 x10^7
Viable cell count ([2]; 250µg/ml + cow urine distillate 0.001 µl/ml): 0.99 x10^7
Fold enhancement in isoniazid/H2O2 activity ([2]; 250µg/ml): 7.5
enhancement action for INH ([2]; distillate at 10-50 thousand-fold dilution in the final volume of culture, organism not stated): showed enhancement action

CO[C@H]1/C=C/O[C@@]2(C)Oc3c(C)c(O)c4c(O)c(c(/C=N/N5CCN(C)CC5)c(O)c4c3C2=O)NC(=O)/C(C)=C\C=C\[C@H](C)[C@H](O)[C@@H](C)[C@@H](O)[C@@H](C)[C@H](OC(C)=O)[C@@H]1C [Rifampicin]
Survival fraction of viable cells upon treatment with antibiotic alone (Bacillus subtilis; antibiotic 0.005 µg/ml): 1.1
Survival fraction of viable cells upon treatment with antibiotic + cow urine distillate combination (Bacillus subtilis; antibiotic 0.005 µg/ml + cow urine distillate 1 µl/ml): 0.28
Fold enhancement in antibiotic activity (Bacillus subtilis; antibiotic 0.005 µg/ml): 5.5
Survival fraction of viable cells upon treatment with antibiotic alone (Bacillus subtilis; antibiotic 0.05 µg/ml): 0.03
Survival fraction of viable cells upon treatment with antibiotic + cow urine distillate combination (Bacillus subtilis; [6]): 0.01
Fold enhancement in antibiotic activity (Bacillus subtilis; antibiotic 0.05 µg/ml): 3.0
Survival fraction of viable cells upon treatment with antibiotic alone (Mycobacterium smegmatis; antibiotic 0.05 µg/ml): 0.008
Survival fraction of viable cells upon treatment with antibiotic + cow urine distillate combination (Mycobacterium smegmatis; [6]): 0.0001
Fold enhancement in antibiotic activity (Mycobacterium smegmatis; antibiotic 0.05 µg/ml): 80
Survival fraction of viable cells upon treatment with antibiotic alone (Mycobacterium smegmatis; antibiotic 0.1 µg/ml): 0.006
Survival fraction of viable cells upon treatment with antibiotic + cow urine distillate combination (Mycobacterium smegmatis; [4]): 0.0036
Fold enhancement in antibiotic activity (Mycobacterium smegmatis; antibiotic 0.1 µg/ml): 1.5
Survival fraction of viable cells upon treatment with antibiotic alone (Escherichia coli; antibiotic 10 µg/ml): 0.86
Survival fraction of viable cells upon treatment with amlibiotic + cow urine distillate combination (Escherichia coli; antibiotic 10 µg/ml + cow urine distillate 1 µl/ml): 0.17
Fold enhancement in antibiotic activity (Escherichia coli; antibiotic 10 µg/ml): 5.0
Survival fraction of viable cells upon treatment with antibiotic alone (Escherichia coli; antibiotic 30 µg/ml): 0.05
Survival fraction of viable cells upon treatment with amlibiotic + cow urine distillate combination (Escherichia coli; antibiotic 30 µg/ml + cow urine distillate 1 µl/ml): 0.007
Fold enhancement in antibiotic activity (Escherichia coli; antibiotic 30 µg/ml): 7.1
OD measured as Absorbance (specific to the compound maxima) across the membrane in receiving tube after 1 hr ([3]; A340): 0.0097
OD measured as Absorbance (specific to the compound maxima) across the membrane in receiving tube after 2 hr ([3]; A340): 0.0214
OD measured as Absorbance (specific to the compound maxima) across the membrane in receiving tube after 3 hr ([3]; A340): 0.0334
OD measured as Absorbance (specific to the compound maxima) across the membrane in receiving tube after 4hr ([3]; A340): 0.0771
OD measured as Absorbance (specific to the compound maxima) across the membrane in receiving tube after 5 hr ([3]; A340): 0.0858
OD measured as Absorbance (specific to the compound maxima) across the membrane in receiving tube after 6 hr ([3]; A340): 0.0910
OD measured as Absorbance (specific to the compound maxima) across the membrane in receiving tube after 1 hr ([3]; A475): 0.0177
OD measured as Absorbance (specific to the compound maxima) across the membrane in receiving tube after 2 hr ([3]; A475): 0.0284
OD measured as Absorbance (specific to the compound maxima) across the membrane in receiving tube after 3 hr ([3]; A475): 0.0309
OD measured as Absorbance (specific to the compound maxima) across the membrane in receiving tube after 4hr ([3]; A475): 0.0412
OD measured as Absorbance (specific to the compound maxima) across the membrane in receiving tube after 5 hr ([3]; A475): 0.0484
OD measured as Absorbance (specific to the compound maxima) across the membrane in receiving tube after 6 hr ([3]; A475): 0.0496
enhancement of bioavailability across the mammalian gut membrane ([3]; with the sample, goat intestine, within 2 hours, keeps increasing upto 4 hours): enhancement of bioavailability

CC(=O)O[C@H]1C(=O)[C@@]2(C)[C@H]([C@H](OC(=O)c3ccccc3)[C@]3(O)C[C@H](OC(=O)[C@H](O)[C@@H](NC(=O)c4ccccc4)c4ccccc4)C(C)=C1C3(C)C)[C@]1(OC(C)=O)CO[C@@H]1C[C@@H]2O [Taxol, Paclitaxel]
enhancement in the activity of taxol (MCF-7): at least 5 folds
